In patent US7576094B2, “Spiro derivatives as lipoxygenase inhibitors” (Eli Lilly and Company, priority 2004, dated 2009):

Tests used:
[1] = test system: LTB4 production in human whole blood; test: Inhibition of LTB4 Production in Blood; type: cell-based; conditions: 1 h, 20 μM A23187, 60 minutes at 37° C., LTB4 in plasma by ELISA, read-out: protection against LTB4 at an EC50
In short: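 Citrated human whole blood preincubated 15 min at 37 °C with compound (top final 30 μM, 1:3 dilutions, quadruplicate), then stimulated with 20 μM A23187 for 60 min at 37 °C. Plasma LTB4 quantified by ELISA; IC50 from percent inhibition versus vehicle.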

[2] = molecular target: T1, human recombinant 5-Lipoxygenase (Homo sapiens, UniProt P09917); test: 5-Lipoxygenase Enzyme Assay; type: biochemical; conditions: 70 μM arachidonic acid, 10 minute incubation at room temperature, FOX reagent, absorbance at 620 nm; read-out: inhibition of 5-Lipoxygenase with an IC50
T1 sequence (P09917 1-674): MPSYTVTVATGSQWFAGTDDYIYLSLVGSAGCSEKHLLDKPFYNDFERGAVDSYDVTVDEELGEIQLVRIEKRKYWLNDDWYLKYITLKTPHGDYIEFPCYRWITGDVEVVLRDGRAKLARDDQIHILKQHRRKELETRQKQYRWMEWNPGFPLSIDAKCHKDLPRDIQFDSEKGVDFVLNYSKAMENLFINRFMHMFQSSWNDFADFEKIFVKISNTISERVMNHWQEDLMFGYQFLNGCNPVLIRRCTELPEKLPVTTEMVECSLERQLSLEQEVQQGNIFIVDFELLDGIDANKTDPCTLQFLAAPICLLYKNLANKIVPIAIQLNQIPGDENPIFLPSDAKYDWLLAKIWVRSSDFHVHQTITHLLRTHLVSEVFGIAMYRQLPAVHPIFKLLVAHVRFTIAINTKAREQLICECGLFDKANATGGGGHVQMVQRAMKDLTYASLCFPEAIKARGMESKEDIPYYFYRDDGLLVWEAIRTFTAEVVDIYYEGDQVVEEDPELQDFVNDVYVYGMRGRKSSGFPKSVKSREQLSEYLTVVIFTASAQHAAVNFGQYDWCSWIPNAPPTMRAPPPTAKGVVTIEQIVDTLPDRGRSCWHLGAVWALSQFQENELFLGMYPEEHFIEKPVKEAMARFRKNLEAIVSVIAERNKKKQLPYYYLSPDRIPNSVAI
In short: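 Recombinant human 5-LOX in 50 mM Tris-HCl pH 7.4 was preincubated with compound, then 70 μM arachidonic acid was added for 10 min at room temperature. Hydroperoxide was read by FOX reagent (ferric xylenol orange, 1 h complex formation) as absorbance at 620 nm. Five concentrations in triplicate were tested, starting at 10 μM.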

[3] = molecular target: T2, porcine leukocyte 12/15-Lipoxygenase (Sus scrofa, UniProt P16469); test: 12/15-Lipoxygenase Enzyme Assay; type: biochemical; conditions: 70 μM arachidonic acid, 10 minute incubation at room temperature, FOX reagent, absorbance at 620 nm; read-out: inhibition of 12/15-Lipoxygenase with an IC50
T2 sequence (P16469 1-663): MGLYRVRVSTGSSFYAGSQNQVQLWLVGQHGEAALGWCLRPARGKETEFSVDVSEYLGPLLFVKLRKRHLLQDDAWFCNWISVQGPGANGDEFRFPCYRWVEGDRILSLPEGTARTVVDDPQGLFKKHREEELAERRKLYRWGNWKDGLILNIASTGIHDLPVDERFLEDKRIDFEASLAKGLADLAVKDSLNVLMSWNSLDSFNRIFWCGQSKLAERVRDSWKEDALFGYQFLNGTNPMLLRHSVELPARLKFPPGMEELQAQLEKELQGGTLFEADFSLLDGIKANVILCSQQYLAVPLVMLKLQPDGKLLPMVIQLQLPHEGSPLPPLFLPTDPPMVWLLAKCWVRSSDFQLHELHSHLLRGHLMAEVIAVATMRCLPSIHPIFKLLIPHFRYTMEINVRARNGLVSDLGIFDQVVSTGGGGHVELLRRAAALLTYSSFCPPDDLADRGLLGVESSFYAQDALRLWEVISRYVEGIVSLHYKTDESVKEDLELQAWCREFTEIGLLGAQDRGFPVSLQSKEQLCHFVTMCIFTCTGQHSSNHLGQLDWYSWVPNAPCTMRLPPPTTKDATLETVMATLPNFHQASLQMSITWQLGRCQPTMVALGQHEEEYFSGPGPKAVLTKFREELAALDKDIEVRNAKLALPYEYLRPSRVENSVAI
Description: This procedure was used for measuring the enzymatic activity of porcine leukocyte 12/15-Lipoxygenase using a […] method based on the ferric oxidation of xylenol orange.
• 96 well flat bottom microfilter plates (VWR, Catalog # 62402-933 9295) • Lipoxygenase screening assay buffer (Cayman, Catalog # 760710) • Porcine leukocyte 12/15-Lipoxygenase (Cayman, Catalog # 60300) • Arachidonic Acid (Sigma, Catalog # A3555) • Xylenol orange tetrasodium salt (Aldrich, Catalog # 227854) • Iron (II) sulfate heptahydrate (Sigma, Catalog # F7002) • Sulfuric acid (95-98%) [18M] • Methanol Procedure
Porcine Leukocyte 12/15-Lipoxygenase (Cayman Cat # 60300) was used in this assay. Test compound and/or vehicle was added to 1.3 μL 12/15-Lipoxygenase in 50 mM Tris-HCl buffer, pH 7.4. The reaction was initiated by addition of 70 μM arachidonic acid in Tris-HCl buffer, pH 7.4, and terminated after a 10 minute incubation at room temperature by addition of FOX reagent (25 mM sulfuric acid, 100 μM xylenol orange, 100 μM iron (II) sulfate, methanol:water 9:1). The yellow color of acidified xylenol orange was converted to a blue color by the lipid hydroperoxide-mediated oxidation of Fe^2+ ions and the interaction of the resulting Fe^3+ ions with the dye. The complex was allowed to form during a 1 hour incubation at room temperature with shaking. Absorbance of the Fe^3+ complex was then measured at […] using a spectrophotometer.
Negative controls contained enzyme during the incubation step but substrate was not added until after the FOX reagent. Compounds are screened at 5 concentrations in triplicate starting at 10 μM

[4] = test system: release of the leukotriene LTB4 from a neutrophil cell line (MPRO cell line); test: LTB4-Cell Assay; type: cell-based; conditions: Mus musculus, 1 h, read-out: inhibition of LTB4 with an EC50
In short: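 Mouse promyelocytic cells differentiated to neutrophils with 10 μM all-trans retinoic acid for 72 h, then stimulated with 1 μM A23187 plus compound for 1 h at 37° C. Supernatant LTB4 quantified by competitive EIA; 5 concentrations in quadruplicate from 10 μM top.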

Cc1c(O)c(C(C)C)cc2c1CCC1(CCC1)O2 [7-isopropyl-5-methyl-3,4-dihydrospiro[chromene-2,1′-cyclobutan]-6-ol]
EC50 [1]: < 10 µM | IC50 [2]: < 0.3 µM | IC50 [3]: < 5 µM

Cc1c(C)c2c(c(C)c1O)C(OC1CCCC1)CC1(CCC1)O2 (stereo not drawn) [4-(cyclopentyloxy)-5,7,8-trimethyl-3,4-dihydrospiro[chromene-2,1′-cyclobutane]-6-diol]
IC50 [2]: < 0.3 µM | IC50 [3]: < 5 µM | EC50 [4]: < 5 µM

COC(=O)CSCC1Cc2c(C)c(O)c(C)c(C)c2OC12CCC2 (stereo not drawn) [methyl {[(6-hydroxy-5,7,8-trimethyl-3,4-dihydrospiro[chromene-2,1′-cyclobutan]-3-yl)methyl]thio}acetate]
IC50 [2]: < 0.3 µM | IC50 [3]: < 5 µM | EC50 [4]: < 5 µM

Cc1c(O)cc2c(c1C)N(c1ccc(O)cn1)CC1(CCC1)C2 [1′-(5-hydroxypyridin-2-yl)-7′,8′-dimethyl-2′,4′-dihydro-1′H-spiro[cyclobutane-1,3′-quinolin]-6′-ol]
EC50 [1]: < 10 µM | IC50 [2]: < 0.3 µM | IC50 [3]: < 5 µM

COc1cc2c(c(C)c1C)N(c1ccc(O)cc1)CC1(CCC1)C2 [4-(6′-methoxy-7′,8′-dimethyl-2′,4′-dihydro-1′H-spiro[cyclobutane-1,3′-quinoline]-1′-yl)phenol]
IC50 [2]: < 0.3 µM | IC50 [3]: < 5 µM

CC(C)c1cc2c(c(C(C)C)c1O)C=CC1(CCC1)O2 [5,7-diisopropylspiro[chromene-2,1′-cyclobutan]-6-ol]
EC50 [1]: < 10 µM | IC50 [2]: < 0.3 µM | IC50 [3]: < 5 µM

Cc1c(C)c2c(c(C)c1O)C(OC(=O)Nc1ccccc1)CCS2 (stereo not drawn) [6-hydroxy-5,7,8-trimethylthiochroman-4-yl phenylcarbamate]
IC50 [2]: < 0.3 µM | IC50 [3]: < 5 µM | EC50 [4]: < 5 µM

CCc1cc2c(c(CC)c1O)C=CC1(CCC1)O2 [5,7-diethylspiro[chromene-2,1′-cyclobutan]-6-ol]
EC50 [1]: < 10 µM | IC50 [2]: < 0.3 µM | IC50 [3]: < 5 µM

Cc1c(O)cc2c(c1C)N(c1cccc(O)c1)CC1(CCC1)C2 [1′-(3-hydroxyphenyl)-7′,8′-dimethyl-2′,4′-dihydro-1′H-spiro[cyclobutane-1,3′-quinolin]-6′-ol]
IC50 [2]: < 0.3 µM | IC50 [3]: < 5 µM

Cc1c(O)c(Cl)c(C)c2c1CCC1(CCC1)O2 [7-chloro-5,8-dimethyl-3,4-dihydrospiro[chromene-2,1′-cyclobutan]-6-ol]
IC50 [2]: < 0.3 µM | IC50 [3]: < 5 µM | EC50 [4]: < 5 µM

Cc1c(O)c(CCC(C)C)c(C)c2c1CCC1(CCC1)O2 [5,8-dimethyl-7-(3-methylbutyl)-3,4-dihydrospiro[chromene-2,1′-cyclobutan]-6-ol]
IC50 [2]: < 0.3 µM | IC50 [3]: < 5 µM | EC50 [4]: < 5 µM

CCCc1ccc(S(=O)(=O)NCCCN2CC3(CCC3)Cc3cc(O)c(C)c(C)c32)cc1 [N-(3-(6′-hydroxy-7′,8′-dimethyl-2′,4′-dihydro-1′H-spiro[cyclobutane-1,3′-quinoline]-1′-yl)propyl)-4-propylbenzenesulfonamide]
EC50 [1]: < 10 µM | IC50 [2]: < 0.3 µM | IC50 [3]: < 5 µM

Cc1c(O)c(C(C)C)cc2c1C=CC1(CCC1)O2 [7-isopropyl-5-methylspiro[chromene-2,1′-cyclobutan]-6-ol]
EC50 [1]: < 10 µM | IC50 [2]: < 0.3 µM | IC50 [3]: < 5 µM

Cc1c(C)c2c(c(C)c1O)C=CC1(CCC1)S2 [5′,7′,8′-trimethylspiro[cyclobutane-1,2′-thiochromen]-6′-ol]
IC50 [2]: < 0.3 µM | IC50 [3]: < 5 µM | EC50 [4]: < 5 µM

COc1c(C(C)(C)C)cc2c(c1C)CC1(CCC1)CN2c1ccc(O)cn1 [6-(7′-tert-butyl-6′-methoxy-5′-methyl-2′,4′-dihydro-1′H-spiro[cyclobutane-1,3′-quinoline]-1′-yl)pyridin-3-ol]
IC50 [3]: < 5 µM

Cc1c(O)c(CCc2ccc3ccccc3n2)c(C)c2c1CCC1(CCC1)O2 [5,8-dimethyl-7-(2-(quinolin-2-yl)ethyl)spiro[chroman-2,1′-cyclobutan]-6-ol]
IC50 [3]: < 5 µM

Cc1c(C)c2c(c(C)c1O)CC1(CCC1)CO2 [5,7,8-trimethylspiro[chroman-3,1′-cyclobutan]-6-ol]
EC50 [1]: < 10 µM | IC50 [2]: < 0.3 µM | IC50 [3]: < 5 µM

Cc1cc2c(c(C)c1O)CC(c1cnco1)C1(CCC1)O2 (stereo not drawn) [5,7-dimethyl-3-(oxazol-5-yl)spiro[chroman-2,1′-cyclobutan]-6-ol]
EC50 [1]: < 10 µM | IC50 [2]: < 0.3 µM | IC50 [3]: < 5 µM

Cc1cc2c(c(C)c1O)C=C(c1cnco1)C1(CCC1)O2 [5,7-dimethyl-3-(1,3-oxazol-5-yl)spiro[chromene-2,1′-cyclobutan]-6-ol]
EC50 [1]: < 10 µM | IC50 [2]: < 0.3 µM | IC50 [3]: < 5 µM

Cc1ccc(N2CC3(CCC3)Cc3cc(O)c(C)c(C)c32)cc1 [7′,8′-dimethyl-1′-p-tolyl-2′,4′-dihydro-1′H-spiro[cyclobutane-1,3′-quinolin]-6′-ol]
IC50 [2]: < 0.3 µM | IC50 [3]: < 5 µM

Cc1c(C)c2c(c(C)c1OC(=O)CN1CCN(C)CC1)CCC1(CCC1)O2 [5,7,8-trimethyl-3,4-dihydrospiro[chromene-2,1′-cyclobutan]-6-yl-2-(4-methylpiperazin-1-yl)acetate]
IC50 [3]: < 5 µM

CCN1CC2(CCC2)Cc2cc(O)c(C)c(C)c21 [1′-ethyl-7′,8′-dimethyl-2′,4′-dihydro-1′H-spiro[cyclobutane-1,3′-quinolin]-6′-ol]
IC50 [3]: < 5 µM

COc1ccc(N2CC3(CCC3)Cc3cc(O)c(C)c(C)c32)cc1 [1′-(4-methoxyphenyl)-7′,8′-dimethyl-2′,4′-dihydro-1′H-spiro[cyclobutane-1,3′-quinolin]-6′-ol]
IC50 [3]: < 5 µM

Cc1c(O)cc2c(c1C)N(c1ccc(F)cc1)CC1(CCC1)C2 [1′-(4-fluorophenyl)-7′,8′-dimethyl-2′,4′-dihydro-1′H-spiro[cyclobutane-1,3′-quinolin]-6′-ol]
IC50 [3]: < 5 µM
